This assay concerns the target Mitogen-activated protein kinase 1 (Mus musculus, UniProt P63085). Put plainly: TdF (Temperature Dependence Fluorescence) Assay: The SAR (Structure Activity Relationship) for ERK ligands covered by this invention was interrogated using the TdF (Temperature Dependence Fluorescence) assay or best known as thermal shift assay. (M. W. Pantoliano, et al., "High-density miniaturized thermal shift assays as a general strategy for drug discovery," J. Biomol. Screen 6 (2001) 429-440) The TdF assay was mainly conducted in the 96-well based CHROMO-4 real time fluorescence plate reader (BioRad). The Sypro Orange (Sigma-Aldrich), environmentally sensitive fluorescence dye, was used to monitor the protein folding-unfolding transition. Protein-ligand binding was gauged by the change (or shift) in the unfolding transition temperature (ΔTm) acquired at protein alone with respect to protein in the presence of ligand of interest.Compound of interest was first prepared in DMSO stock (typical concentration: 10 mM). […] Final percentage of DMSO resided in the sample was 2%. The sample plate was heated from 30° C. to 90° C. with thermal ramping rate of 1° C./min.

Molecules are shown by their SMILES.

Chain of Mitogen-activated protein kinase 1 (P63085 whole entry): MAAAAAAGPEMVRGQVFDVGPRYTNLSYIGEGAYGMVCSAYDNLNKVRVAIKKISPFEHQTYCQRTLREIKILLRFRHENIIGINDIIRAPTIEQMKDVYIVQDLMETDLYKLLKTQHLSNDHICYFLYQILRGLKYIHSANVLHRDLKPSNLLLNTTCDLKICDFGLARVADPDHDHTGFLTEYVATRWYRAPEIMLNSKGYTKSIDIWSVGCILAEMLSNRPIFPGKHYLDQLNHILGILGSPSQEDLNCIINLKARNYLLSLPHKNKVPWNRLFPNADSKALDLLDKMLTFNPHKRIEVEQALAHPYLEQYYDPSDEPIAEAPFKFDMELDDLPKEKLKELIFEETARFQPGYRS

For the molecule `O=C(N[C@H]1CNC[C@@H]1c1ccccc1)N1CCc2[nH]nc(-c3ccncc3)c2C1` (racemic), the dissociation constant Kd came out at 6 nM.

The values are drawn from ChEMBL document CHEMBL3886489, “Fused pyrazole derivatives as novel ERK inhibitors” (2016).
